The text below walks through data of patent US20260242391A1 (priority 2023, published 2026).

The subject of series [1] is MDS-L cells. The settings on record: for Induction of differentiation of MDS-L cells (GlyA positivity), in words: anti-GlyA immunopositivity; for pEC50: read-out: MDS-L GlyA induction EC50.
Method: MDS-L differentiation assay.
(§1) MDS-L were cultured in RPMI (17-105-CV, Corning) without phenol red and supplemented with 2 mM glutamine and 10% FBS. Cells first expanded in IL-3 until 70% confluence then pre-conditioned for 14 days with IL-3 (200-03, PeproTech), GCSF (300-23, PeproTech), and EPO (287-TC, R&D Systems) to promote erythroid and myeloid differentiation. A density of 10,000 cells per well were used in phenotypic assays. MDSL cells were spun and treatment media was replaced with media containing APC Anti-CD235a (GlyA) (551336, BD Biosciences) (1.25 μL per 50 L test) and incubated for 1 hour at 4° C. Cells were washed then counter stained with SYTOX-Green 1 M per 100 L prior to flow cytometry analysis. Dose response and pharmacological assays were analyzed using a ZE5 Cell Analyzer (BioRad) equipped with Everest software. Single, live, cells were analyzed for GlyA expression using FlowJo v10.7.2 software.
Series [2] deals with MDS-L cells. As to the kind of experiment: cells. As to conditions: read-out: MDS-L GlyA induction EC50.
Method: MDS-L differentiation assay.
as §1
The next series has as its system HL-60. Put plainly: HL-60 differentiation potency. Type of series: cell-based. The settings on record: Homo sapiens.
The next series is described as follows: in vitro. As to conditions: human.
The mark [3] stands for this setting: MDS-L cells, anti-CD235a (GlyA) flow cytometry.

pEC50, pIC50: −log10 of the molar value. Read-outs that look alike come from different tables or passages of the source.

On to `C[C@@H]1CC[C@H]2[C@@H](C)C(=O)O[C@@H]3O[C@@]4(C)CC[C@@H]1[C@]32O4` [2-deoxy-artemisinin], for which, in the series with MDS-L cells [1] (MDS-L cells), the “Induction of differentiation of MDS-L cells (GlyA positivity), in words” value (“Induction of differentiation … in words” below) was “inactive”.
`CC1=C(/C=C/C(C)=C/C=C/C(C)=C/C(=O)O)C(C)(C)CCC1` [ATRA, retinoic acid]: the “Cytotoxicity as readout by live dead cell gating” value with MDS-L cells [1] (MDS-L cells) is recorded as “minimal cytotoxicity”.
The pEC50 is −log10 of the EC50, conventionally taken in molar units. Regarding `C[C@H]1[C@@H](OCc2ccc(C(=O)O)cc2)O[C@@H]2O[C@@]3(C)CC[C@H]4[C@H](C)CC[C@@H]1[C@@]24OO3` [Artelinic acid (artelinate), artelinate], the “Maximal MDS-L GlyA fold induction” value in the series on MDS-L cells [1] (human) is reported as 7.26 fold. In addition, the negative-log EC50 (pEC50) in the series on MDS-L cells [2] is 7.52.
`Cc1c(-c2ccc(-c3ccccc3F)cc2)nc2ccc(F)cc2c1C(=O)O` [Brequinar]: the “Induction of differentiation … in words” value with MDS-L cells [1] (MDS-L cells) is given as “efficacious at inducing differentiation”.
As a reminder, the pIC50 is the IC50 on a negative log10 scale, so that one unit is a factor of ten. Consider `C[C@H]1[C@@H](OCc2ccc(C(=O)NC34CCC(C(=O)O)(C3)C4)cc2)O[C@@H]2O[C@@]3(C)CC[C@H]4[C@H](C)CC[C@@H]1[C@@]24OO3` [Compound 293, 4-(4-((((3R,5aS,6R,8aS, 9R,10S,12R, 12aR)-3,6,9-trimethyldeca-hydro-12H-3,12-epoxy[1,2]dioxepino[4,3-i]isochromen-10-yl)oxy)methyl)benzamido) bicyclo[2.1.1] hexane-1-carboxylic acid], for which the pEC50 with HL-60 was 7.36. The pIC50 in the series “in vitro” is under 4.70.
In the series with HL-60, `C[C@H]1[C@@H](OCc2ccc(NC(=O)[C@H]3CC[C@@H](C(=O)O)C3)cc2)O[C@@H]2O[C@@]3(C)CC[C@H]4[C@H](C)CC[C@@H]1[C@@]24OO3` [Compound 294, (1R,3S)-3-((4-((((3R,5aS,6R,8aS, 9R,10S,12R, 12aR)-3,6,9-trimethyldeca-hydro-12H-3,12-epoxy[1,2]dioxepino[4,3-i]isochromen-10-yl)oxy)methyl)phenyl)carbamoyl) cyclopentane-1-carboxylic acid] had a pEC50 of 7.19. This compound also showed a pIC50 in the series “in vitro” of 4.80.
In the series with HL-60, `C[C@H]1[C@@H](OC[C@H]2CC[C@@H](C(=O)NC34CCC(C(=O)O)(C3)C4)CC2)O[C@@H]2O[C@@]3(C)CC[C@H]4[C@H](C)CC[C@@H]1[C@@]24OO3` [Compound 295, 4-((1R,4s)-4-((((3R,5aS,6R,8aS, 9R,10S,12R, 12aR)-3,6,9-trimethyldeca-hydro-12H-3,12-epoxy[1,2]dioxepino[4,3-i]isochromen-10-yl)oxy)methyl)cyclohexane-1-carboxamido) bicyclo[2.1.1] hexane-1-carboxylic acid] showed a pEC50 of 6.71. Further, the pIC50 in “in vitro” is under 4.70.
For `C[C@H]1[C@@H](OCc2ccc(N3C(=O)N(CC(=O)O)C(C)(C)C3=O)cc2)O[C@@H]2O[C@@]3(C)CC[C@H]4[C@H](C)CC[C@@H]1[C@@]24OO3` [Compound 296, 2-(5,5-dimethyl-2,4-dioxo-3-(4-((((3R,5aS,6R,8aS, 9R,10S,12R, 12aR)-3,6,9-trimethyldeca-hydro-12H-3,12-epoxy[1,2]dioxepino[4,3-i]isochromen-10-yl)oxy)methyl)phenyl)imidazolidin-1-yl)acetic acid], the pEC50 with HL-60 is 5.54. This compound also showed a pIC50 in “in vitro” of under 4.70.
In turn, `C[C@H]1[C@@H](OC[C@H]2CC[C@@H](C(=O)NCC3(C(=O)O)CCC3)CC2)O[C@@H]2O[C@@]3(C)CC[C@H]4[C@H](C)CC[C@@H]1[C@@]24OO3` [Compound 297, 1-(((1R,4s)-4-((((3R,5aS,6R,8aS, 9R,10S,12R, 12aR)-3,6,9-trimethyldeca-hydro-12H-3,12-epoxy[1,2]dioxepino[4,3-i]isochromen-10-yl)oxy)methyl)cyclohexane-1-carboxamido)methyl) cyclobutane-1-carboxylic acid] showed a pEC50 in the series on HL-60 of 7.50. The compound further gave a pIC50 in the series “in vitro” of 4.75.
As to `C[C@H]1[C@@H](OCc2ccc(C(=O)O)c(OC(F)(F)F)c2)O[C@@H]2O[C@@]3(C)CC[C@H]4[C@H](C)CC[C@@H]1[C@@]24OO3` [Compound 298, 2-(trifluoro-methoxy)-4-((((3R,5aS,6R,8aS, 9R,10S,12R, 12aR)-3,6,9-trimethyldeca-hydro-12H-3,12-epoxy[1,2]dioxepino[4,3-i]isochromen-10-yl)oxy)methyl) benzoic acid], the pEC50 in the series on HL-60 is 7.27. The compound further had a pIC50 in the series “in vitro” of under 4.70.
In the series with HL-60, `C[C@H]1[C@@H](Oc2ccc(CC(=O)N[C@@H]3C[C@H](C(=O)O)C[C@H]3O)cc2)O[C@@H]2O[C@@]3(C)CC[C@H]4[C@H](C)CC[C@@H]1[C@@]24OO3` [Compound 299, (1S,3R,4R)-3-hydroxy-4-(2-(4-(((3R,5aS,6R,8aS, 9R,10S,12R, 12aR)-3,6,9-trimethyldeca-hydro-12H-3,12-epoxy[1,2]dioxepino[4,3-i]isochromen-10-yl)oxy)phenyl)acetamido) cyclopentane-1-carboxylic acid] showed a pEC50 of 6.97. The compound also gave a pIC50 in “in vitro” of 5.30.
For `C[C@H]1[C@@H](Oc2ccc(CC(=O)NC34CCC(C(=O)O)(C3)C4)cc2)O[C@@H]2O[C@@]3(C)CC[C@H]4[C@H](C)CC[C@@H]1[C@@]24OO3` [Compound 300, 4-(2-(4-(((3R,5aS,6R,8aS, 9R,10S,12R, 12aR)-3,6,9-trimethyldeca-hydro-12H-3,12-epoxy[1,2]dioxepino[4,3-i]isochromen-10-yl)oxy)phenyl)acetamido) bicyclo[2.1.1] hexane-1-carboxylic acid] the same measures were 7.77 and 4.71.
For `C[C@H]1[C@@H](Oc2ccc(CC(=O)N[C@H](C(=O)O)C3CC3)cc2)O[C@@H]2O[C@@]3(C)CC[C@H]4[C@H](C)CC[C@@H]1[C@@]24OO3` [Compound 301, (S)-2-cyclopropyl-2-(2-(4-(((3R,5aS,6R,8aS, 9R,10S,12R, 12aR)-3,6,9-trimethyldeca-hydro-12H-3,12-epoxy[1,2]dioxepino[4,3-i]isochromen-10-yl)oxy)phenyl)acetamido) acetic acid] the same measures were 7.20 and under 4.70.
The compound `C[C@H]1[C@@H](Oc2ccc(CC(=O)NC34CC(C(=O)O)(C3)C4)cc2)O[C@@H]2O[C@@]3(C)CC[C@H]4[C@H](C)CC[C@@H]1[C@@]24OO3` [Compound 303, 3-(2-(4-(((3R,5aS,6R,8aS, 9R,10S,12R, 12aR)-3,6,9-trimethyldeca-hydro-12H-3,12-epoxy[1,2]dioxepino[4,3-i]isochromen-10-yl)oxy)phenyl)acetamido) bicyclo[1.1.1] pentane-1-carboxylic acid] had a pEC50 in the series with HL-60 of 7.33. Besides, the pIC50 in “in vitro” is under 4.70.
For `C[C@H]1[C@@H](OCc2ccc(-c3nnc(CC(=O)O)o3)cc2)O[C@@H]2O[C@@]3(C)CC[C@H]4[C@H](C)CC[C@@H]1[C@@]24OO3` [Compound 304, 2-(5-(4-((((3R,5aS,6R,8aS, 9R,10S,12R, 12aR)-3,6,9-trimethyldeca-hydro-12H-3,12-epoxy[1,2]dioxepino[4,3-i]isochromen-10-yl)oxy)methyl)phenyl)-1,3,4-oxadiazol-2-yl)acetic acid] the same measures were 7.95 and 7.52.
`CC(C(=O)N[C@H]1CC[C@@H](C(=O)O)C1)c1ccc(O[C@H]2O[C@@H]3O[C@@]4(C)CC[C@H]5[C@H](C)CC[C@@H]([C@H]2C)[C@@]35OO4)c(F)c1` (stereo partly drawn) [Compound 306, (1R,3S)-3-(2-(3-fluoro-4-(((3R,5aS,6R,8aS, 9R,10S,12R, 12aR)-3,6,9-trimethyldeca-hydro-12H-3,12-epoxy[1,2]dioxepino[4,3-i]isochromen-10-yl)oxy)phenyl)propanamido) cyclopentane-1-carboxylic acid] gave a pEC50 in the series on HL-60 of 7.88. Also, in the series “in vitro”, the pIC50 is 6.16.
On to `C[C@H]1[C@@H](Oc2ccc(CC(=O)N[C@H]3CC[C@H](C(=O)O)C3)cc2)O[C@@H]2O[C@@]3(C)CC[C@H]4[C@H](C)CC[C@@H]1[C@@]24OO3` [Compound 307, (1S,3S)-3-(2-(4-(((3R,5aS,6R,8aS, 9R,10S,12R, 12aR)-3,6,9-trimethyldeca-hydro-12H-3,12-epoxy[1,2]dioxepino[4,3-i]isochromen-10-yl)oxy)phenyl)acetamido) cyclopentane-1-carboxylic acid], for which the pEC50 in the series with HL-60 was 7.59. In addition, the pIC50 in the series “in vitro” is 4.93.
`C[C@H]1[C@@H](Oc2ccc(CC(=O)N[C@H]3CC[C@@H](C(=O)O)CC3)cc2)O[C@@H]2O[C@@]3(C)CC[C@H]4[C@H](C)CC[C@@H]1[C@@]24OO3` [Compound 308, (1R,4s)-4-(2-(4-(((3R,5aS,6R,8aS, 9R,10S,12R, 12aR)-3,6,9-trimethyldeca-hydro-12H-3,12-epoxy[1,2]dioxepino[4,3-i]isochromen-10-yl)oxy)phenyl)acetamido) cyclohexane-1-carboxylic acid]: the pEC50 with HL-60 was 7.92. In “in vitro” (HL-60 cells), this compound showed a pIC50 of under 4.70.
The compound `C[C@H]1[C@@H](OCc2c(F)cc(C(=O)N[C@H]3CC[C@@H](C(=O)O)C3)cc2F)O[C@@H]2O[C@@]3(C)CC[C@H]4[C@H](C)CC[C@@H]1[C@@]24OO3` [Compound 309, (1R,3S)-3-(3,5-difluoro-4-((((3R,5aS,6R,8aS, 9R,10S,12R, 12aR)-3,6,9-trimethyldeca-hydro-12H-3,12-epoxy[1,2]dioxepino[4,3-i]isochromen-10-yl)oxy)methyl)benzamido) cyclopentane-1-carboxylic acid] showed a pEC50 in the series on HL-60 of 7.50. This compound had a pIC50 in the series “in vitro” of 5.76.
As for `CCCCCCCCCCCCCC(=O)O[C@@H]1[C@@H](C)[C@@]2(O)[C@@H](C=C(CO)C[C@]3(O)C(=O)C(C)=C[C@@H]23)[C@@H]2C(C)(C)[C@]12OC(C)=O` [phorbol 12-myristate 13-acetate (PMA), phorbol 12-myristate 13-acetate], the “Induction of differentiation … in words” value with MDS-L cells [1] (MDS-L cells) is “efficacious at inducing differentiation”.
In the case of Artefenomel [Artefenomel (OZ-439)], in the series on MDS-L cells [1] (setting [3]), the “Maximal MDS-L GlyA fold induction” value amounted to 3.71 fold and the pEC50 was 5.25.
For Arterolane [Arterolane (OZ-277)] the same measures were 7.02 fold and 5.76.
